Measurements as given in US11839593B2, “Penetrating topical pain relief compositions and methods of use” (Tech Swerve LLC, priority 2019, dated 2023).

Experiment: Solubility in DMSO or in DMSO and water
Conditions: isolates

CCCCCc1cc(O)c2c(c1)OC(C)(C)[C@@H]1CCC(C)=C[C@@H]21 [THC, tetrahydrocannabinol]
solubility in DMSO: soluble in DMSO
